Measured values taken from article PMC3119665, “A New Drug Design Targeting the Adenosinergic System for Huntington's Disease” (PLoS ONE, 2011).

Legend:
[1] = test system: GABAA, Benzodiazepine, Central, Ro-15-1788; assay: Radioligand binding panel (Table S1); set-up: species or system rat; settings: 10 μM T1-11, n 2
[2] = molecular target: T1, N-Formyl Peptide Receptor, FPR1 (Homo sapiens, UniProt P21462); assay: Radioligand binding panel (Table S1); settings: 10 μM T1-11, n 2
T1 construct: purchased MDS Pharma Services Taiwan

[3] = molecular target: T2, G Protein-Coupled Receptor, GPR8 (Homo sapiens, UniProt P48146); assay: Radioligand binding panel (Table S1); settings: 10 μM T1-11, n 2
T2 construct: purchased MDS Pharma Services Taiwan

[4] = molecular target: T3, Serotonin (5-Hydroxytryptamine) 5-HT3 (Homo sapiens, UniProt P46098); assay: Radioligand binding panel (Table S1); settings: 10 μM T1-11, n 2
T3 construct: purchased MDS Pharma Services Taiwan

[5] = molecular target: T4, Transporter, Norepinephrine (NET) (Homo sapiens, UniProt P23975); assay: Radioligand binding panel (Table S1); settings: 10 μM T1-11, n 2
T4 construct: purchased MDS Pharma Services Taiwan

Histamine H4 = molecular target: T5, Histamine H4 (Homo sapiens, UniProt Q9H3N8); assay: Radioligand binding panel (Table S1); settings: 10 μM T1-11, n 2
T5 construct: purchased MDS Pharma Services Taiwan

Bradykinin B1 = molecular target: T6, Bradykinin B1 (Homo sapiens, UniProt P46663); assay: Radioligand binding panel (Table S1); settings: 10 μM T1-11, n 2
T6 construct: purchased MDS Pharma Services Taiwan

Vanilloid = molecular target: T7, Vanilloid (Rattus norvegicus, UniProt O35433); assay: Radioligand binding panel (Table S1); settings: 10 μM T1-11, n 2
T7 construct: purchased MDS Pharma Services Taiwan

[6] = test system: chymotrypsin-like activity of the proteasome; assay: Proteasome activity assay, striatal synaptosomes; assay type: in vivo; settings: R6/2 mice, 12 weeks old, 0.05 mg/ml in drinking water
Procedure: The chymotrypsin-like activity of the proteasome was determined using a specific proteasome substrate [succinyl (suc)-Leu-Leu-Val-Tyr-7-amino-4-methyl coumarin (AMC)] (Sigma-Aldrich, St Louis, MO, USA) as described earlier. In brief, the synaptosome-enriched fraction (10 µg) were incubated with the substrate (40 µM) in 100 µl of proteasome assay buffer [0.05 M Tris-HCl (pH 8.0), 0.5 mM EDTA, 1 mM ATP, and 1 mM DTT] at 37°C for 60 min where the relationship between the incubation time and product formation remained linear. The fluorescence of the released AMC was detected using a Fluorescence Microplate Reader System (Device, Sunnyvale, CA, USA) at 380-nm excitation and 460-nm emission wavelengths.

[7] = test system: Chemokine CXCR1/2 (IL-8, Non-Selective); assay: Radioligand binding panel (Table S1); set-up: species or system human; settings: 10 μM T1-11, n 2
Glutamate, AMPA = assay: Radioligand binding panel (Table S1); set-up: species or system rat; settings: 10 μM T1-11, n 2
Cyclooxygenase COX-2 = molecular target: T8, Cyclooxygenase COX-2 (Homo sapiens, UniProt P35354); assay: Radioligand binding panel (Table S1); settings: 10 μM T1-11, n 2
T8 construct: purchased MDS Pharma Services Taiwan

Transporter, Glycin.e = assay: Radioligand binding panel (Table S1); set-up: species or system rat; settings: 10 μM T1-11, n 2
Sigma σ1 = molecular target: T9, Sigma σ1 (Homo sapiens, UniProt Q99720); assay: Radioligand binding panel (Table S1); settings: 10 μM T1-11, n 2
T9 construct: purchased MDS Pharma Services Taiwan

[8] = test system: GABAA, Benzodiazepine, Central, Flunitrazepam; assay: Radioligand binding panel (Table S1); set-up: species or system rat; settings: 10 μM T1-11, n 2
Adrenergic α 1A = molecular target: T10, Adrenergic α 1A (Rattus norvegicus, UniProt P43140); assay: Radioligand binding panel (Table S1); settings: 10 μM T1-11, n 2
T10 construct: purchased MDS Pharma Services Taiwan

[9] = test system: Calcium Channel L-Type, Phenylalkylamin.; assay: Radioligand binding panel (Table S1); set-up: species or system rat; settings: 10 μM T1-11, n 2
[10] = molecular target: T11, Leukotriene, Cysteinyl CysLT1 (Homo sapiens, UniProt Q9Y271); assay: Radioligand binding panel (Table S1); settings: 10 μM T1-11, n 2
T11 construct: purchased MDS Pharma Services Taiwan

Adrenomedullin AM1 = molecular target: T12, Adrenomedullin AM1 (Homo sapiens, UniProt O60895+Q16602); assay: Radioligand binding panel (Table S1); settings: 10 μM T1-11, n 2
T12 construct: purchased MDS Pharma Services Taiwan

PC12 cells = assay: Annexin V-FITC staining, serum-deprived PC12 cells; assay type: cell-based, rat; settings: T1-11 10 µM, 24 h
Procedure: An annexin V (FITC-conjugated) apoptosis kit (K101-400; BioVision, Mountain View, CA, USA) was used to analyze apoptotic cells. The experimental protocol followed the manufacturer's instructions and a previous article. In brief, after treatment with serum, serum-free medium, or serum-free medium plus T1-11 of the indicated concentration for 24 h, cells growing on 12-well plates at (3∼4)×10^5 cells/well were loaded with 0.5 ml binding buffer and 5 µl annexin V-FITC. After incubation for 5 min in the dark, cells were washed once with 1 ml of culture medium (without phenol red) for fluorescent imaging analyses (Axiovert-200M, Carl Zeiss, Gôttingen, Germany) or a flow cytometric analysis (Beckton Dickinson, Franklin Lakes, NJ, USA). Median values of the FITC fluorescent intensities were determined using an FL-1 channel (488/530Ex/Em nm). Five thousand live cells were analyzed per sample.

[11] = molecular target: T13, Serotonin (5-Hydroxytryptamine) 5-HT2B (Homo sapiens, UniProt P41595); assay: Radioligand binding panel (Table S1); settings: 10 μM T1-11, n 2
T13 construct: purchased MDS Pharma Services Taiwan

R6/2 mice = assay: Rotarod performance of R6/2 mice; assay type: in vivo
Description: Male R6/2 mice and littermate controls were originally obtained from Jackson Laboratories (Bar Harbor, ME, USA), and mated to female control mice (B6CBAFI/J). Offspring were identified by a polymerase chain reaction (PCR) genotyping technique of genomic DNA extracted from tail tissues using primers located in the transgene (5′-[…]-3′ and 5′-[…]- AGGAG-3′) to ensure that the number of CAG repeats remained approximately 150. In total, 211 R6/2 transgenic mice were used in this study. Animals were housed at the Institute of Biomedical Sciences Animal Care Facility under a 12-h light/dark cycle. Body weights of mice were recorded once daily. Animal experiments were performed under protocols approved by the Academia Sinica Institutional Animal Care and Utilization Committee, Taipei, Taiwan.
Motor coordination was assessed using a rotarod apparatus (UGO BASILE, Comerio, Italy) at a constant speed (12 rpm) over the period of 2 min [75]. All mice were trained for 2 days at the age of 4 weeks to allow them to become acquainted with the rotarod apparatus. Animals were then tested three times per week from the ages of 4∼12 weeks. For each test, animals were placed in the apparatus before initiation of rotation. Latency to falling was automatically recorded. Each mouse was given three trials for a maximum of 2 min for each trial.

[12] = molecular target: T14, Calcitonin Gene-Related, Peptide CGRP1 (Homo sapiens, UniProt O60894+Q16602); assay: Radioligand binding panel (Table S1); settings: 10 μM T1-11, n 2
T14 construct: purchased MDS Pharma Services Taiwan

Glutamate, Non-Selective = assay: Radioligand binding panel (Table S1); set-up: species or system rat; settings: 10 μM T1-11, n 2
GABAA, Agonist Site = assay: Radioligand binding panel (Table S1); set-up: species or system rat; settings: 10 μM T1-11, n 2

T6 sequence (P46663 whole entry): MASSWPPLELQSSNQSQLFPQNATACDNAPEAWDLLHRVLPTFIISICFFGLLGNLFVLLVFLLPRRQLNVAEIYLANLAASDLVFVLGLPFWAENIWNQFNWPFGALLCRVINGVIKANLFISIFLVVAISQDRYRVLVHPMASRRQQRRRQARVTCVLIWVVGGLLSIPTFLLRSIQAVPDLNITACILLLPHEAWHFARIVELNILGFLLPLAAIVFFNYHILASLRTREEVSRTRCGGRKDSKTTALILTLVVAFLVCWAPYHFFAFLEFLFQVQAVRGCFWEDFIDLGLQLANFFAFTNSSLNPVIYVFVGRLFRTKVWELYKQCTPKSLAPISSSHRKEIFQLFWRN
T1 sequence (P21462 whole entry): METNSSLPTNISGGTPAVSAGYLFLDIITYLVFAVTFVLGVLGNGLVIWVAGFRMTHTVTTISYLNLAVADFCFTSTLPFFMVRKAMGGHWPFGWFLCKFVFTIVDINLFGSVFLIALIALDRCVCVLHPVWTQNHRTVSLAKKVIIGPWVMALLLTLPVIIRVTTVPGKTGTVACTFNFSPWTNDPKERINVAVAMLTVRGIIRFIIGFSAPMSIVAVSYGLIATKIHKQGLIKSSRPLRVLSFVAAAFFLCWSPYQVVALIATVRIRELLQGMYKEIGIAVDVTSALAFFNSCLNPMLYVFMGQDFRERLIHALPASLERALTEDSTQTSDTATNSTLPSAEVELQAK
T7 sequence (O35433 whole entry): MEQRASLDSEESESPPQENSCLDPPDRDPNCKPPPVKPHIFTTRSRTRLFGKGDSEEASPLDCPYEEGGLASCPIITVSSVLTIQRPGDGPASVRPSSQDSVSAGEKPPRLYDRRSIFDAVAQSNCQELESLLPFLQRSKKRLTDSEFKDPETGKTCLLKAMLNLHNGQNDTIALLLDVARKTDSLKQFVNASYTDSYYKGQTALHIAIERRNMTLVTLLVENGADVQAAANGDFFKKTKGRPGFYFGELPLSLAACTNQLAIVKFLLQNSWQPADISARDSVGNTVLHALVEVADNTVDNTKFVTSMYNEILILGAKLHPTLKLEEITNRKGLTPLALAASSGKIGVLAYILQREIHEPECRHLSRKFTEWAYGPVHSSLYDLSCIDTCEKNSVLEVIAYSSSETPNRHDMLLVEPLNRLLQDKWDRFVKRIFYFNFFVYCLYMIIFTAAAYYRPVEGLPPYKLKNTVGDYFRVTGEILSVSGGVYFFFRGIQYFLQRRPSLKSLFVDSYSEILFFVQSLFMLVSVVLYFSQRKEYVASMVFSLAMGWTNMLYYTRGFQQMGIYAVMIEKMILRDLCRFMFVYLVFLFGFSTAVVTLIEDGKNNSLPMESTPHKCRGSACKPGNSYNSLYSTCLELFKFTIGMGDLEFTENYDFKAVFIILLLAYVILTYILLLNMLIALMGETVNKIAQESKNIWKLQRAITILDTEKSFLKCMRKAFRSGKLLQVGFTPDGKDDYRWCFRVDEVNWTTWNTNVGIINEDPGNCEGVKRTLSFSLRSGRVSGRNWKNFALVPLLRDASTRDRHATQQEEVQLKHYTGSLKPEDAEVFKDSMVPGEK
T2 sequence (P48146 whole entry): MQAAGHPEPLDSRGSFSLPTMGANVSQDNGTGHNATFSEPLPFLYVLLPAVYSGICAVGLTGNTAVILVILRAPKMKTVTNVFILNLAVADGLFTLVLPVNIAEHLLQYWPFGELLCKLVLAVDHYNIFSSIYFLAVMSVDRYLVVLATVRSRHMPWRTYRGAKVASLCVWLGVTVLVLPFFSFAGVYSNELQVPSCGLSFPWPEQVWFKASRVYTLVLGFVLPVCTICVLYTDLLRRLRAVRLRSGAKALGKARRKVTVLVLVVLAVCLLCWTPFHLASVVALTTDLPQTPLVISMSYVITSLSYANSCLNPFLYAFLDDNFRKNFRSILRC
T4 sequence (P23975 whole entry): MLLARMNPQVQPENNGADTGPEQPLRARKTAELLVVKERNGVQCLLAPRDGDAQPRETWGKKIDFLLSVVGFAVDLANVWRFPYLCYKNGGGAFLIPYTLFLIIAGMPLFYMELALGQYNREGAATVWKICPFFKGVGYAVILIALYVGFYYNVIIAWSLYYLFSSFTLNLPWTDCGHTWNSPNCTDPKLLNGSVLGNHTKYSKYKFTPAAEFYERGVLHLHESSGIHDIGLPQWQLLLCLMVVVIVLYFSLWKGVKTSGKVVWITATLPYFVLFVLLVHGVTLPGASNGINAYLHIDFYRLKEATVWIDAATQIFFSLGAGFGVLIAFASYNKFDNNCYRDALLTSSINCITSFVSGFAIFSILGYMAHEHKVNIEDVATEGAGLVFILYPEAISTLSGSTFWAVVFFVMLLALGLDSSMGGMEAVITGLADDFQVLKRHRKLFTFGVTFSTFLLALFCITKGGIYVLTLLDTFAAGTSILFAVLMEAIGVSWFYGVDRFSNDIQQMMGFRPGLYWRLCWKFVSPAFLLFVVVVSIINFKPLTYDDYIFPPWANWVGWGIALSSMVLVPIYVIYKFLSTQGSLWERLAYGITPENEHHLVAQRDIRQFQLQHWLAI
T3 sequence (P46098 24-478): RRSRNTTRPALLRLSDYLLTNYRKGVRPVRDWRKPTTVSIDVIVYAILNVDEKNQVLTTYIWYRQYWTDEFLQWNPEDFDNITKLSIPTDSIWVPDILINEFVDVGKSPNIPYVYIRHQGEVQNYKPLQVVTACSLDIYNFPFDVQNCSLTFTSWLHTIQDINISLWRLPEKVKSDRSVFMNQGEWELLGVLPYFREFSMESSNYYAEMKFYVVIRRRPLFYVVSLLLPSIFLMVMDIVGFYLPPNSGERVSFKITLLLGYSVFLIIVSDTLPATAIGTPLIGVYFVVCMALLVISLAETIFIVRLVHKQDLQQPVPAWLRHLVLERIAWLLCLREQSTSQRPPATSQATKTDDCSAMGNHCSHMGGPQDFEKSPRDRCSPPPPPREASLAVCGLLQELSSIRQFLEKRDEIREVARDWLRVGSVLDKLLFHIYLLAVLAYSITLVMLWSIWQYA
T9 sequence (Q99720 whole entry): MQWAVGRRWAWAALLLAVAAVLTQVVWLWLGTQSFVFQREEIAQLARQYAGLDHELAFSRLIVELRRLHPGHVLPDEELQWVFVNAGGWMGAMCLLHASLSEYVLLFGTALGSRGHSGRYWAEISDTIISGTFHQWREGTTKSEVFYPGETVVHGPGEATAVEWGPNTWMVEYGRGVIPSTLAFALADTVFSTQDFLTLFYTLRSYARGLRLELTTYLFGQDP
T10 sequence (P43140 whole entry): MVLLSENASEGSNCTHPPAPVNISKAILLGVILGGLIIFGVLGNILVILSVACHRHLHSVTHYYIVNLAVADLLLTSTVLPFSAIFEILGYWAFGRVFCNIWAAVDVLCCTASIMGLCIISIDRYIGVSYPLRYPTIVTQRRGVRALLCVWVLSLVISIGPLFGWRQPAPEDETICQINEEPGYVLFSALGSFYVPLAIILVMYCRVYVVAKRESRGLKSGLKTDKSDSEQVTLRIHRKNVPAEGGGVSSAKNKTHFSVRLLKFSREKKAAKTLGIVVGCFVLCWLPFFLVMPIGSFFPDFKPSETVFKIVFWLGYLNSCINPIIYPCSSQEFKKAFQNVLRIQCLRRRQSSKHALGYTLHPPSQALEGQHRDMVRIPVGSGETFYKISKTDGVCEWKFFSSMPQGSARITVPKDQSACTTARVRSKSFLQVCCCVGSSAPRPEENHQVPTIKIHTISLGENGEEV
T8 sequence (P35354 18-604): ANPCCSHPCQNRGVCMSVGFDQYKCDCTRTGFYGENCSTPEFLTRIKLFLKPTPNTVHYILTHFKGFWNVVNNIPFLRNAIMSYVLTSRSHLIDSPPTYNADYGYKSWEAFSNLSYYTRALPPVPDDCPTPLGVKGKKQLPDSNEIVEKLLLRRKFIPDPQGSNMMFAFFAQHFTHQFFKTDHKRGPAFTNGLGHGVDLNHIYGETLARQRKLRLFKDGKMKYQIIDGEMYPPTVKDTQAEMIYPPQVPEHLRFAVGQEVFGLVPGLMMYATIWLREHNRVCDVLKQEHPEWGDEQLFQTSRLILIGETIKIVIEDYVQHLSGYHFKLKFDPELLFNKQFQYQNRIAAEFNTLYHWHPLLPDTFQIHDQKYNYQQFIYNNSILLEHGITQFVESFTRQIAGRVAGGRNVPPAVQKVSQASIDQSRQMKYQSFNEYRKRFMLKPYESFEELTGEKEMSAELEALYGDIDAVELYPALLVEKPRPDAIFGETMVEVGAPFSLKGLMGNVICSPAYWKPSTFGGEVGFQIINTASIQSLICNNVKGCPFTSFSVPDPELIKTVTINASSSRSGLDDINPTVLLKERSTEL
T14 sequence (Q16602 23-461): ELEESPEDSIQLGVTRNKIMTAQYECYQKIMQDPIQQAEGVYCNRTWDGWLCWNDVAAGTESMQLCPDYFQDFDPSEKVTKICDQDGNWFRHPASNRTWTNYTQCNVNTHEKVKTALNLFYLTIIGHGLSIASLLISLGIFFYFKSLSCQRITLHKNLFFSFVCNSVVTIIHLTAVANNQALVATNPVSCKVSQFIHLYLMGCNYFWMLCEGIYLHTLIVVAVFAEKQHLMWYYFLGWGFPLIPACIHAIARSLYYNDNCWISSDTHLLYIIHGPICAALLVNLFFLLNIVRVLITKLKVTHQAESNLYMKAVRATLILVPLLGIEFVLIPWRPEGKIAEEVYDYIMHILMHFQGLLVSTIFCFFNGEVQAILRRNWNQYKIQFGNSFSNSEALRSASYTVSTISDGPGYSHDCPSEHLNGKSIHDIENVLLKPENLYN
T14 sequence (O60894 27-148): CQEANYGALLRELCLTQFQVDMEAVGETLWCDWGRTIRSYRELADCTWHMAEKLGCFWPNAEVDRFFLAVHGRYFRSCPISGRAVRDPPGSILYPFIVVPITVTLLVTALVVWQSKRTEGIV

SMILES: OC[C@H]1O[C@@H](n2cnc3c(NCc4ccc(O)cc4)ncnc32)[C@H](O)[C@@H]1O [T1-11, N ^6-(4-hydroxybenzyl)adenine riboside]
- % Inhibition [1]: 1%
- inhibition at 10 µM [2]: 5%
- inhibition at 10 µM [3]: 15%
- inhibition at 10 µM [4]: 5%
- inhibition at 10 µM [5]: 6%
- inhibition at 10 µM (Histamine H4): 8%
- inhibition at 10 µM (Bradykinin B1): -8%
- inhibition at 10 µM (Vanilloid): 8%
- Chymotrypsin-like activity in striatal synaptosome fractions [6]: significantly enhanced chymotrypsin-like activity in the HD striatum
- % Inhibition [7]: 10%
- % Inhibition (Glutamate, AMPA): -9%
- inhibition at 10 µM (Cyclooxygenase COX-2): 0%
- % Inhibition (Transporter, Glycin.e): 1%
- inhibition at 10 µM (Sigma σ1): 7%
- % Inhibition [8]: 6%
- inhibition at 10 µM (Adrenergic α 1A): -14%
- % Inhibition [9]: -7%
- inhibition at 10 µM [10]: -4%
- inhibition at 10 µM (Adrenomedullin AM1): 11%
- Apoptosis (annexin V-FITC) (PC12 cells): rescued serum-deprived PC12 cells from apoptosis
- inhibition at 10 µM [11]: 5%
- Motor coordination (rotarod performance) (R6/2 mice; 0.05 mg/ml in drinking water from the age of 7 weeks): counteracted the progressive deterioration in motor coordination
- Motor deterioration (rotarod performance) (R6/2 mice; subcutaneous Alzet minipump, 125 µg/mouse/day): improved motor deterioration
- inhibition at 10 µM [12]: 6%
- % Inhibition (Glutamate, Non-Selective): -1%
- % Inhibition (GABAA, Agonist Site): 4%
